Counter-ions that a name gives are not always drawn. Like-named read-outs stand apart in the source and are kept apart here.
Assays:
human α-thrombin [1] = target: T1, human α-thrombin (Homo sapiens, UniProt P00734); assay: Enzyme assay for the inhibition of thrombin (s-2238 chromogenic substrate); assay type: biochemical; conditions: Table I, determined graphically from Dixon plots, room temperature, pH 7.4, substrate s-2238
T1 construct: purified human α-thrombin
Protocol: Enzyme Assays for the Inhibition of Thrombin The following reagents were used in these assays: […] Inhibitors to be tested were dissolved in H2 O, methanol, or DMSO just prior to use. To each well in a 96-well microtiter plate, 270 μl of assay buffer was added. […] The samples were incubated at room temperature for a defined period of time (3 minutes for initial IC50 determinations). The enzymatic reaction was started with 10 μl of 3 mM s-2238 substrate and continued at room temperature. The change in optical density was measured at 405 nm. A kinetic microplate reader (Molecular Devices Corporation .nu.max) was used to measure the change in optical density over time. Table I lists the Ki values for different compounds, Ki value is determined graphically from Dixon plots (plots of reciprocal enzyme velocity i/v vs. linear function of inhibitor concentration at various enzyme substrate concentrations). This methodology is well known in the art.

human α-thrombin [2] = target: T1, human α-thrombin; assay: Concentration required for doubling thrombin clotting time (clotting time assay in human plasma); assay type: biochemical; conditions: Table II; human citrated plasma, 10 U/ml human thrombin; read-out: DTT (concentration of drug which caused a doubling of the thrombin clotting time)
Protocol: Procedure for Determining the Concentration Required for Doubling Thrombin Clotting Time--Clotting Time Assays
The following reagents were used in these assays:
The blood was centrifugated at […]. The plasma was removed, pooled, and aliquoted into small tubes which were stored frozen for later use.
Clotting times were determined by pipetting 0.1 ml of Owren's buffer (pre-warmed to 37° C.) and 0.1 ml of human or rat plasma into yellow sample cuvettes. For studies with human plasma 10 U/ml human thrombin (10 ml) was placed in the reservoir assembly station of the MLA 700. (Medical Laboratory Automation, Electra 700 Reservoir Assembly). For rat studies, the human thrombin concentration was 25 U/ml. The cuvettes were vortexed and then placed on the MLA 700 sample wheel. The coagulation timer (MLA 700) automatically dispenses 0.1 ml human thrombin into the sample in each cuvette. Detection of the fibrin clot was determined optically by the MLA 700.
Studies were performed to determine the concentration of drug which caused a doubling of the clotting time (DTT) in human plasma.

## Cc1ccc(S(=O)(=O)NC(CCCNC(=N)C(=N)N)C(=O)N2CCC(C)CC2)cc1 (stereo not drawn) [Compound 7l, 1-[5-[2-(amino-1,2-diiminoethyl)amino]-2-[[(4-methylphenyl)sulfonyl]amino]-1-oxopentyl]-4-methylpiperidine hydrochloride]
Human α-thrombin [1]; read-out: Ki
  Ki: 18 µM

## CCCCN(CC(=O)OCC)C(=O)C(CCCNC(=N)C(=N)N)NS(=O)(=O)c1cccc2c(N(C)C)cccc12 (stereo not drawn) [Compound 7f, ethyl N-[5-[(2-amino-1,2-diiminoethyl)amino]-2-[[[5-(dimethylamino)-1-naphthalenyl]sulfonyl]amino]-1-oxopentyl]-N-butylglycinate trihydrochloride hydrate]
Human α-thrombin [1]; read-out: Ki
  Ki: 3 µM

## N=C(N)C(=N)NCCCC(NC(=O)CNS(=O)(=O)c1ccc2ccccc2c1)C(=O)N1CCCCC1 (stereo not drawn) [Compound 7n]
Human α-thrombin [1]; read-out: Ki
  Ki: > 50 µM

## CCC1CCN(C(=O)C(CCCNC(=N)C(=N)N)NS(=O)(=O)c2cccc3c(N(C)C)cccc23)CC1 (stereo not drawn) [Compound 7d, 1-[5-[(2-amino-1,2-diiminoethyl)amino]-2-[[[5-(dimethylamino)-1-naphthalenyl]sulfonyl]amino]-1-oxopentyl]-4-ethylpiperidine trihydrochloride hydrate]
Human α-thrombin [1]; read-out: Ki
  Ki: 0.3 µM

## CN(C)c1cccc2c(S(=O)(=O)NC(CCCNC(=N)C(=N)N)C(=O)N3CCCCC3)cccc12 (stereo not drawn) [Compound 7a, 1-[5-[(2-amino-1,2-diminoethyl)amino]-2-[[[5-(dimethylamino)-1-naphthalene]amino]-1-oxopentyl]piperidine hydrochloride]
Human α-thrombin [1]; read-out: Ki
  Ki: 3.2 µM

## Cc1ccc(S(=O)(=O)NC(CCNC(=N)C(=N)N)C(=O)N2CCCCC2)cc1 (stereo not drawn) [Compound 7i]
Human α-thrombin [1]; read-out: Ki
  Ki: 80 µM

## Cc1ccc(S(=O)(=O)NC(CCCCNC(=N)C(=N)N)C(=O)N2CCCCC2)cc1 (stereo not drawn) [Compound 7k, 1-[6-[(2-amino-1,2-diiminoethyl)aminol]-2-[[(4-methylphenyl)sulfonyl]amino]-1-oxohexyl]piperidine dihydrochloride]
Human α-thrombin [2]
  IC (2-fold clotting time): 150 µM
Human α-thrombin [1]; read-out: Ki
  Ki: 55 µM

## N=C(N)C(=N)NCCC(NC(=O)CNS(=O)(=O)c1ccc2ccccc2c1)C(=O)N1CCCCC1 (stereo not drawn) [Compound 7m]
Human α-thrombin [1]; read-out: Ki
  Ki: 36 µM

## Cc1ccc(S(=O)(=O)NC(CNC(=N)C(=N)N)C(=O)N2CCCCC2)cc1 (stereo not drawn) [Compound 7h]
Human α-thrombin [2]
  IC (2-fold clotting time): > 300 µM
Human α-thrombin [1]
  Ki: insol.

## CC1CCN(C(=O)C(CCNC(=N)C(=N)N)NS(=O)(=O)c2cccc3c(N(C)C)cccc23)CC1 (stereo not drawn) [Compound 7b]
Human α-thrombin [1]; read-out: Ki
  Ki: 4 µM

## Cc1ccc(S(=O)(=O)NC(CCCNC(=N)C(=N)N)C(=O)N2CCCCC2)cc1 (stereo not drawn) [Compound 7j]
Human α-thrombin [1]; read-out: Ki
  Ki: 16 µM

## CC1CCN(C(=O)C(CCCNC(=N)C(=N)N)NS(=O)(=O)c2cccc3c(N(C)C)cccc23)CC1 (stereo not drawn) [Compound 7c, 1-[5-[(2-amino-1,2-diiminoethyl)amino]-2-[[[5-(dimethylamino)-1-naphthalenyl]sulfonyl]amino]-1-oxopentyl]-4-methylpiperidine trihydrochloride hydrate]
Human α-thrombin [1]; read-out: Ki
  Ki: 0.33 µM

## CN(C)c1cccc2c(S(=O)(=O)NC(CCCNC(=N)C(=N)N)C(=O)N3CCOCC3)cccc12 (stereo not drawn) [Compound 7e, 1-[5-[(2-amino-1,2-diiminoethyl)amino]-2-[[[5-(dimethylamino)-1-naphthalenyl]sulfonyl]amino]-1-oxopentyl]morpholine trihydrochloride hydrate]
Human α-thrombin [2]
  IC (2-fold clotting time): 4 µM
Human α-thrombin [1]; read-out: Ki
  Ki: 2 µM

## CN(C)c1cccc2c(S(=O)(=O)NC(CCCNC(=N)C(=N)N)C(=O)N3CCCCCC3)cccc12 (stereo not drawn) [Compound 7g, 1-[5-(2-amino-1,2-diiminoethyl)amino]-2-[[[5-(dimethylamino)-1-naphthalenyl]sulfonyl]amino]-1-oxopentyl]homopiperidine trihydrochloride hydrate]
Human α-thrombin [2]
  IC (2-fold clotting time): 1.8 µM
Human α-thrombin [1]; read-out: Ki
  Ki: 0.4 µM

Source: patent US5248673A, “Bisamidine derivatives as thrombin inhibitors” (Bristol-Myers Squibb Co., priority 1992, dated 1993)
